Data reported in the METLIN SMRT retention time set (Domingo-Almenara et al. 2019).

experiment: gradient 5% acetonitrile 3 min, to 50% in 2 min, to 85% in 15 min, held 3 min, 100 µL/min; conditions: column: Zorbax Extend-C18 2.1 x 50 mm; eluents: water / acetonitrile, 0.1% formic acid
Outline: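 A Zorbax Extend-C18 column (2.1 × 50 mm, 1.8 μm) run at 100 μL/min with water and acetonitrile, both containing 0.1% formic acid, separated mixtures of ~100 pure standards. The HPLC was coupled to a quadrupole time-of-flight mass spectrometer operated in positive and negative ionization mode, with dead and dwell volumes of 40 μL and 900 μL. Each retention time was taken from a computationally picked adduct peak that was then manually inspected.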

| SMILES | RP-LC retention time [s] |
| --- | --- |
| Cc1sc(NC(=O)c2ccccc2Br)nc1-c1ccc2c(c1)NC(=O)CO2 | 859 |
| COc1ccc(Cl)cc1NC(=O)NCCc1cn(CC(C)C)c2ncccc12 | 980 |
| CCn1cc(-c2nc(-c3ccc(OC(C)C)cc3)no2)c(=O)c2cc(F)c(N3CCOCC3)cc21 | 1050 |
| CCn1c(C)cc(O)c(C(c2ccccc2[N+](=O)[O-])c2c(O)cc(C)n(CC)c2=O)c1=O | 884 |
| Cc1ccc(NC(=O)N2CCC(n3c(-c4ccoc4)nc4cccnc43)C2)cc1 (stereo unspecified) | 740 |
| Cc1cccc(NC(=O)c2nc(N3CCSCC3)c3cnn(C)c3n2)c1 | 901 |
| CC(C)n1cc(S(=O)(=O)NCc2ccc(C(F)(F)F)cc2)c2cccnc21 | 974 |
| COc1ccc2c(c1)C1(CCN(C(=O)NC(C)(C)C)C1)C(=O)N2C (stereo unspecified) | 753 |
| COc1cc(OC)c(NC(=O)NC2(c3nc(C)no3)CCCCC2)cc1Cl | 858 |
| COc1ccc(C(O)CN2CCN(c3ccccc3)CC2)cc1OC (stereo unspecified) | 607 |
| COc1cccc(-c2noc(C3CC(=O)N(c4ccc(F)cc4)C3)n2)c1OC (stereo unspecified) | 885 |
| COc1cccc(-n2c(=O)c3sccc3n(Cc3nc(-c4ccc(C(C)(C)C)cc4)no3)c2=O)c1 | 1220 |
| Cc1ccn2c(NC(=O)CCc3ccccc3)c(-c3ccc(F)cc3)nc2c1 | 703 |
| CCc1nc2cc(-c3noc(C4(c5ccccc5)CC4)n3)ccc2o1 | 1220 |
| O=C(Cn1ncc2c(c1=O)N(CC1CC1)C(=O)CS2)N1CCN(c2ccccc2)CC1 | 788 |
| COc1ccc(NC(=O)Cn2ccnc2-c2ccnc(N3CCOCC3)c2)cc1OC | 578 |
| COc1ccc(-c2cc3n(n2)CCCN(S(=O)(=O)c2cccc(C#N)c2)C3)cc1OC | 814 |
| CCCCN(CC)c1nc(-c2ccccc2F)nc2ccccc12 | 819 |

Results, then the compound that gave them:

| RP-LC retention time [s] | SMILES |
| --- | --- |
| 988 | CCOC(=O)c1[nH]c(C)c(C(=O)C(C)N(C(=O)c2cccc(F)c2)C2CC2)c1C (stereo unspecified) |
| 877 | COc1ccc(CCNC(=O)c2c(N3CCCC3=O)c3cc(OC)ccc3n2C)c(OC)c1 |
| 842 | Cc1ccc2c(c1)N(CC#N)N=C(C(=O)N1CCC(C)CC1)S2(=O)=O |
| 766 | CCOC(=O)C1CCCN(C(=O)C2c3ccccc3C(=O)N3CCc4cc(OC)c(OC)cc4C23)C1 (stereo unspecified) |
| 1260 | O=C(Cc1ccc(S(=O)(=O)N2CCN(c3ccccn3)CC2)s1)N1CCOCC1 |
| 662 | CC1(C(=O)NCc2ccccc2)CN(S(C)(=O)=O)CC(=O)N1C1CC1 (stereo unspecified) |
| 626 | CCCS(=O)(=O)N1CC(n2cc(C(=O)N(C)C)nn2)C1 |
| 622 | CC(C)n1c(CC2CCN(C(=O)c3ccccc3Cl)C2)nc2cccnc21 (stereo unspecified) |
| 621 | CC(C)NC(=O)C1CC(=O)N(c2n[nH]c3cccc(F)c23)C1 (stereo unspecified) |
| 646 | CCNc1cc(N2CCCC(CCC(=O)N3CCC(C(=O)OCC)CC3)C2)ncn1 (stereo unspecified) |
| 647 | Cn1c(=O)c2c(ncn2CC(=O)N2CCCn3nc(-c4ccccc4)cc3C2)n(C)c1=O |
| 743 | COC(=O)c1c(C)[nH]c(C(=O)N2CCC(CC(=O)NCc3ccccc3F)CC2)c1C |
| 736 | CCCN(C)c1nccn2c(=O)n(CC(=O)Nc3ccc(Br)cc3)nc12 |
| 592 | CCC(=O)N1CCCC1c1nc2ccccc2n1CC(=O)OC (stereo unspecified) |
| 992 | Cc1sc(-c2noc(C(C)C)n2)cc1S(=O)(=O)N1CCC(C(=O)NCc2ccco2)CC1 |
| 919 | CCS(=O)(=O)N1CC(=O)N(c2ccc(C)c(Cl)c2)C(C)(C(=O)NCc2ccccc2)C1 (stereo unspecified) |
| 662 | COc1cccc(S(=O)(=O)N2CCC(CN3CCCC(C)C3)CC2)c1 (stereo unspecified) |
| 597 | CN(C)C(=O)c1ccc2c(c1)nc(CN1CCN(C(=O)c3ccc(C#N)cc3)CC1)n2C |
